One data set relates to hepatoblastoma (HePG-2). The data set can be described thus: MTT cytotoxicity assay, HePG-2. Particulars: for IC50: Homo sapiens, HepG2, read-out: IC50 HePG-2; for SI (selectivity index) HePG-2: WI-38 vs HePG-2. Background: Tetrazolium assays rely on reduction of a dye to a coloured formazan, in cell work by metabolically active cells.
Data set [1] relates to breast adenocarcinoma (MCF-7). The data set can be described thus: MTT cytotoxicity assay, MCF-7. Particulars: for IC50: Homo sapiens, MCF7, read-out: IC50 MCF-7; for SI (selectivity index) MCF-7: WI-38 vs MCF-7.
Data set [2] concerns anti-apoptotic protein MCL-1 in MCF-7. The data set can be described thus: MCL-1 expression in MCF-7 cells (ELISA). Type of data set: cell-based, human. As to the method:
(§1) Apoptosis is regulated by intrinsic pathways such as the B-cell lymphoma-2 (BCL-2) family. […] MCL-1, one of the BCL-2 family members, is likely to have a significant role in cell death. The expression of MCL-1 and BCL-2 in MCF-7 cells treated with different concentrations was studied.
(§2) Apoptosis of the MCF-7 cancer cell line was measured using the Human MCL1eia kit (ELISA Kit) for the MCL-1 enzyme assay and the Invitrogen Zymed® Bcl-2 ELISA Kit for the BCL-2 enzyme assay. The ROBONIK P2000 ELISA READER was used for analysis.
On the technique in general: In an ELISA, binding on a coated surface is turned into a signal by an enzyme label.

In the next data set the target is T1, HER2 (Homo sapiens, UniProt P04626).
T1 construct: purchased BPS Bioscience 40721
T1 sequence (P04626 23-1255): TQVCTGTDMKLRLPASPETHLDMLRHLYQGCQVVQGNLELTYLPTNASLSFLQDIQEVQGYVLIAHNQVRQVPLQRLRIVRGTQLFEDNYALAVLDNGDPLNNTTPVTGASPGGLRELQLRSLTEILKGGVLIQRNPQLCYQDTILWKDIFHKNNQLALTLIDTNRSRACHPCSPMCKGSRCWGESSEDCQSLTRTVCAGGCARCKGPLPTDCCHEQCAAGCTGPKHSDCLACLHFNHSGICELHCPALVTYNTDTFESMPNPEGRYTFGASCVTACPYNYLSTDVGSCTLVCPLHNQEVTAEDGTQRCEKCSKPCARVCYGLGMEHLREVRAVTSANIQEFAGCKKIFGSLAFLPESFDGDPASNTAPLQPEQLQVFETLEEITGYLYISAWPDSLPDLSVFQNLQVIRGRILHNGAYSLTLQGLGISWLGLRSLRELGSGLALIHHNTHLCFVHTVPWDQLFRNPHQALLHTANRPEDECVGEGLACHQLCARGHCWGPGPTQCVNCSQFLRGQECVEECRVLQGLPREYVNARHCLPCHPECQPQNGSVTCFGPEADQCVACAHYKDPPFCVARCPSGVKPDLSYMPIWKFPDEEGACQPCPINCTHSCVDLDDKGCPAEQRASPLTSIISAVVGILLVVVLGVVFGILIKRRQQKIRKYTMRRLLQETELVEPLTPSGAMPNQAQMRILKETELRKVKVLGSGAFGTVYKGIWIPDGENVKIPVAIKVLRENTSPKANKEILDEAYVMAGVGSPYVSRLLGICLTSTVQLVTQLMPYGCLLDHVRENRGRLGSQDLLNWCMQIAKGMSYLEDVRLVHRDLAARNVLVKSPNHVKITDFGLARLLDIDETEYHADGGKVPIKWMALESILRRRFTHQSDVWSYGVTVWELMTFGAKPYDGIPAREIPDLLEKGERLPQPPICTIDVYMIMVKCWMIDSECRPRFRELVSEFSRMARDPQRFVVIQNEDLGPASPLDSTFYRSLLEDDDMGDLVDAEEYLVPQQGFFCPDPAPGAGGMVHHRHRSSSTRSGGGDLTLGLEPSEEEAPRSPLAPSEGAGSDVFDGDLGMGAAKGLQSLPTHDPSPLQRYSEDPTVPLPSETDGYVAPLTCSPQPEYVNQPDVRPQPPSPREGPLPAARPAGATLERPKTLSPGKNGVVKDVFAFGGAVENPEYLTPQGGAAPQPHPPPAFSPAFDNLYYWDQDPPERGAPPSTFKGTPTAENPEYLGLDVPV
The data set can be described thus: In vitro luminescent HER2 tyrosine kinase assay (Kinase-Glo Max). Type of data set: biochemical. Conditions: read-out: Kinase Inhibition IC50 HER2. How it is done:
[…]. Erlotinib was probed as the standard drug in the EGFR inhibition assay, while lapatinib was tested as the […]. […].
EGFR and HER2 kinase inhibitory activities were determined based on the manufacturer’s guidelines (EGFR Kinase Assay Kit Catalog no. 40321 and HER2 Kinase Assay Kit Catalog no. 40721, BPS Bioscience, San Diego, CA).
(In general: In Kinase-Glo more light means more ATP remaining.)

Data set [3] deals with HCT-116, HePG-2, and MCF-7. The data set can be described thus: MTT cytotoxicity, summary over the examined cancer cell lines. Conditions: Homo sapiens.
In data set [4] the test system is anti-apoptotic protein BCL-2 in MCF-7. The data set can be described thus: BCL-2 expression in MCF-7 cells (ELISA). It is filed as cell-based, human. How it is done:
as §1, §2

Data set [5] has as its system human colorectal carcinoma (HCT-116). The data set can be described thus: MTT cytotoxicity assay, HCT-116. Particulars: for IC50: Homo sapiens, HCT-116, read-out: IC50 HCT-116; for SI (selectivity index) HCT-116: WI-38 vs HCT-116.
The next data set has as its system MCF-7 cell line. The data set can be described thus: Cell cycle analysis (propidium iodide, flow cytometry). Type of data set: cell-based, human. From the text: Cell cycle analysis is used to quantify DNA content distribution via flow cytometry at various cell cycle stages (pre-G1, G1, S, and G2/M). Compound 24 was selected to analyze its effect on cell cycle progression in the MCF-7 cell line at different concentrations.
Cancer cell line MCF-7 was stained with ab139418_Propidium Iodide (DNA stain) and analyzed using a FACSCalibur flow cytometer.

Data set [6] concerns the target T2, EGFR (Homo sapiens, UniProt P00533).
T2 construct: purchased BPS Bioscience 40321
The data set can be described thus: In vitro luminescent EGFR tyrosine kinase assay (Kinase-Glo Max). Type of data set: biochemical. Particulars: read-out: Kinase Inhibition IC50 EGFR.

Data set [7] concerns WI-38 normal fibroblast cell line. The data set can be described thus: MTT cytotoxicity against normal human cells. Conditions: normal fibroblast WI-38; for IC50: Homo sapiens, read-out: IC50 WI-38. It is filed as cell-based. As to the method: The evaluation was conducted using a 3-(4,5-dimethylthiazol-2-yl)-2,5-diphenyltetrazolium bromide (MTT) assay, as described by the authors of [50, 51]. The cell lines were obtained from ATCC. For comparative purposes, standard drugs, such as doxorubicin and erlotinib, were employed.

The subject of a further data set is various cell lines. On the set-up: method as in doi:10.1007/s00044-013-0597-1. Particulars: read-out: cytotoxic effect on various cell lines IC50; cited from earlier work.
Data set [8] relates to breast cancer cell line MCF-7. Set-up: method as in doi:10.1016/j.rechem.2023.101118. Particulars: cited from earlier work.
The target of data set [9] is T2, EGFR. Set-up: method as in PMID 31297023. Conditions: read-out: kinase inhibition of EGFR IC50; cited from earlier work.
The mark [10] stands for this setting: read-out: average IC50 versus the examined cell lines.

These results are taken from publication PMC12030650, “Synthesis, Antitumor Activities, and Apoptosis-Inducing Activities of Schiff’s Bases Incorporating Imidazolidine-2,4-dione Scaffold: Molecular Docking Studies and Enzymatic Inhibition Activities” (Pharmaceuticals, 2025).

For orientation: IC50 means the concentration that inhibits the measured activity by half.

Several values for one entry are separate records, joined by “and”; a condition that tells them apart may be missing. Identical values can stand only once. Like-named read-outs stand apart in the source and are kept apart here.

T2 sequence (P00533 25-1210): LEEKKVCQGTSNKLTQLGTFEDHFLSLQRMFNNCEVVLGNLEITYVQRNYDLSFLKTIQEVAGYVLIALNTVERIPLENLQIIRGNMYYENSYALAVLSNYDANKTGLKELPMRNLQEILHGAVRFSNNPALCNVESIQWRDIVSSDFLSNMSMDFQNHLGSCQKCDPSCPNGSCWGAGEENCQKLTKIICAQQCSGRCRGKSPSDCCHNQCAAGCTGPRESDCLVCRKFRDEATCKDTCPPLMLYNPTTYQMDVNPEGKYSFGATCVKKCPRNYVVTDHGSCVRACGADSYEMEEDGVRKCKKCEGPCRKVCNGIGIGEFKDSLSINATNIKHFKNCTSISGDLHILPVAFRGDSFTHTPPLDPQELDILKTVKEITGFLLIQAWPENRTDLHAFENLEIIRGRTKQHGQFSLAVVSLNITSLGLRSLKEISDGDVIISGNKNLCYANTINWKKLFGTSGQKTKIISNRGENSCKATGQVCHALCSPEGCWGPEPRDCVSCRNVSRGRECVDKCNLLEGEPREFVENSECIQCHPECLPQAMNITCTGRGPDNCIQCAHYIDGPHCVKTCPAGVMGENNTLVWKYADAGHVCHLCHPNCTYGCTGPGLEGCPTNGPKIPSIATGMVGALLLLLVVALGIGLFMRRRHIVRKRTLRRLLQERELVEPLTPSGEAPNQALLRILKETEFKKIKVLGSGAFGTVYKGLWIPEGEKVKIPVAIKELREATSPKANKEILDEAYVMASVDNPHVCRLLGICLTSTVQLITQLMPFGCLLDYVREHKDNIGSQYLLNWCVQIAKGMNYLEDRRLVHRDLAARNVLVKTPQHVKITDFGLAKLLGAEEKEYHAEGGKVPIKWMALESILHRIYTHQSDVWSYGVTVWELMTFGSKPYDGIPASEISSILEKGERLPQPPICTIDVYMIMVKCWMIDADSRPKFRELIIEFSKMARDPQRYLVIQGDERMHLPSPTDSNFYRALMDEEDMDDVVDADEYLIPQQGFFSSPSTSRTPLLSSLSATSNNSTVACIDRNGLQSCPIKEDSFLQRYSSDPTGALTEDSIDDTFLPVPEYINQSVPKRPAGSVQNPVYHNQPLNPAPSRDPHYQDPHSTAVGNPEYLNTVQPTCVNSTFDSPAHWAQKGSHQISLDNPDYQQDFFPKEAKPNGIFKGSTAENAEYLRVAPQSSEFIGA

For the compound `CC(=NNC(=O)CN1C(=O)NC(c2ccccc2)(c2ccccc2)C1=O)c1ccc2ccccc2c1` [Compound 24, 2-(2,5-Dioxo-4,4-diphenylimidazolidin-1-yl)-N′-(1-(naphthalen-2-yl)ethylidene)acetohydrazide], the IC50 in the data set with hepatoblastoma (HePG-2) is 9.07 ± 0.8 µM; in data set [1], 4.92 ± 0.3 µM; at HER2, 0.04 ± 0.001 µM; in data set [3] (read-out: IC50 range against the selected cell lines), 4.92 to 20.1 µM; in [5], 12.8 ± 0.9 µM; on EGFR [6] it was 0.07 ± 0.004 µM. The IC50 in data set [7] came to 39.5 µM. In the data set with hepatoblastoma (HePG-2), the “SI (selectivity index) HePG-2” value was 4.3 and 4.35. The “SI (selectivity index) MCF-7” value in [1] is 8.0 and 8.03. Besides, the MCL-1 expression level in data set [2] (2 µM) was 715.62 pg/mL; in data set [2] (10 μM) it was 261.20 pg/mL and 261.20 ± 8.97 pg/mL. Also, the BCL-2 expression level is 15.55 ng/mL in [4] (2 µM); 8.60 ng/mL and 8.598 ± 0.29 ng/mL in [4] (10 μM). The “SI (selectivity index) HCT-116” value in data set [5] is 3.0 and 3.08. Moreover, the “Comment (cell cycle arrest)” value with MCF-7 cell line is on record as “cell cycle arrest appeared at the G2/M phase”. The “%G0–G1” value with MCF-7 cell line (2 µM) was 52.12%; with MCF-7 cell line (10 μM) it was 50.61%. Moreover, the entries for the “%G2/M” value with MCF-7 cell line (2 µM) and in the data set with MCF-7 cell line (10 μM) were 25.43% and 33.46%, respectively. The “%S” value turned out to be 22.45% in the data set with MCF-7 cell line (2 µM) and 15.93% in the data set on MCF-7 cell line (10 μM). The “IC50 WI-38” value in data set [7] is listed as “low cytotoxicity”.
For `O=C(CN1C(=O)NC(c2ccccc2)(c2ccccc2)C1=O)c1ccc(N2CCCCC2)cc1` [Compound 2], in the data set with various cell lines, the IC50 is 10 µM.
On to `CC(=NNC(=O)CN1C(=O)NC(c2ccccc2)(c2ccccc2)C1=O)c1ccc(OC(F)(F)F)cc1` [Compound 13, 2-(2,5-Dioxo-4,4-diphenylimidazolidin-1-yl)-N′-(1-(4-(trifluoromethoxy)phenyl)ethylidene)acetohydrazide], for which the IC50 in the data set on hepatoblastoma (HePG-2) was 13.9 ± 1.2 µM; in data set [1], 9.58 ± 0.8 µM; on HER2, 0.28 ± 0.01 µM; in [3] (setting [10]) it was 14.5 µM; in data set [5] it was 20.1 ± 1.7 µM; on EGFR [6] it was 0.61 ± 0.02 µM. Moreover, the IC50 in data set [7] came to 45.4 µM. Also, in the data set with hepatoblastoma (HePG-2), the “SI (selectivity index) HePG-2” value was 3.2 and 3.25. Further, the “SI (selectivity index) MCF-7” value in [1] is 4.7 and 4.73. Besides, in [5], the “SI (selectivity index) HCT-116” value was 2.2 and 2.25. Also, the “IC50 WI-38” value in data set [7] was “low cytotoxicity”.
Regarding `O=C(CN1C(=O)NC(c2ccccc2)(c2ccccc2)C1=O)Nc1ccc(S(=O)(=O)Nc2ccccn2)cc1` [Compound 3], the “inhibition of the breast cancer cell line MCF-7” value in data set [8] is “around 74%”.
In the case of `CC(=NNC(=O)CN1C(=O)NC(c2ccccc2)(c2ccccc2)C1=O)c1ccc(Cl)cc1` [Compound 10, N′-(1-(4-Chlorophenyl)ethylidene)-2-(2,5-dioxo-4,4-diphenylimidazolidin-1-yl)acetohydrazide], the IC50 came out at 10.7 ± 0.9 µM with hepatoblastoma (HePG-2); 11.2 ± 0.9 µM in [1]; 0.71 ± 0.02 µM on HER2; 13.2 µM in data set [3] (setting [10]); 17.9 ± 1.4 µM in data set [5]; 0.67 ± 0.03 µM at EGFR [6]. The IC50 in data set [7] worked out at 54.2 µM. The “SI (selectivity index) HePG-2” value in the data set on hepatoblastoma (HePG-2) is 5.0 and 5.07. Further, in [1], the “SI (selectivity index) MCF-7” value is 4.8 and 4.84. For the same compound, the “SI (selectivity index) HCT-116” value in data set [5] was 3.0 and 3.02. In data set [7], the “IC50 WI-38” value is on record as “low cytotoxicity”.
`CC(=NNC(=O)CN1C(=O)NC(c2ccccc2)(c2ccccc2)C1=O)c1cccnc1` [Compound 21, 2-(2,5-Dioxo-4,4-diphenylimidazolidin-1-yl)-N′-(1-(pyridin-3-yl)ethylidene)acetohydrazide]: the IC50 in the data set on hepatoblastoma (HePG-2) was determined as 11.5 ± 1 µM; in [1] it was 8.61 ± 0.6 µM; at HER2, 1.17 ± 0.04 µM; in data set [3] (setting [10]), 13.1 µM; in [5], 19.2 ± 1.5 µM; at EGFR [6], 1.61 ± 0.07 µM. For the same compound, in data set [7], the IC50 worked out at 60.8 µM. In addition, in the data set on hepatoblastoma (HePG-2), the “SI (selectivity index) HePG-2” value is 5.2 and 5.28. Moreover, in [1], the “SI (selectivity index) MCF-7” value came to 7.06. Moreover, in data set [5], the “SI (selectivity index) HCT-116” value is 3.1 and 3.15. The “IC50 WI-38” value in data set [7] is “low cytotoxicity”.
`O=C(CN1C(=O)NC(c2ccccc2)(c2ccccc2)C1=O)N/N=C/c1c[nH]c2ccccc12` [Compound 1]: the IC50 on EGFR [9] was 0.1 µM.
